Data published in patent publication US8362000B2, “Azetidinyl diamides as monoacylglycerol lipase inhibitors” (Janssen Pharmaceutica NV, priority 2009, dated 2013).
Positions count from the first letter of the chain named. Where two headings read alike, the source gives them in different places.

Tests used:
[1] = target: T1, MGL (Rattus norvegicus, UniProt Q8R431); assay: 2-AG accumulation assay in rat brain homogenate; type: biochemical; details: rat brain homogenate, 2-AG accumulation as percent of vehicle; for 2-AG accumulation, % of vehicle control at 1 µM: compound 1 μM, read-out: Rat Brain 2AG % VehCntrl (%) @ 1 μM
T1 construct: one g rat brain was homogenized using a Polytron homogenizer; from tissue; host or cells: rat brain homogenate
T1 sequence (Q8R431 1-303): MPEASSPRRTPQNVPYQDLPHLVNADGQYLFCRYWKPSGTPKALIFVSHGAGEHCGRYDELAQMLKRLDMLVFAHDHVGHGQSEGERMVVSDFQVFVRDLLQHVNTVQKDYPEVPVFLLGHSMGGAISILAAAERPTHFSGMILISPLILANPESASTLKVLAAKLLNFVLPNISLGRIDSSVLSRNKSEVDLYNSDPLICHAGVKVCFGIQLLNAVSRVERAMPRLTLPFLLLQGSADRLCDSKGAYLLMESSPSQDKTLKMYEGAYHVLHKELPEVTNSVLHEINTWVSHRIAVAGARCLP

[2] = target: T2, mutant MGL (Homo sapiens, UniProt Q99685, L169S/L176S); assay: MGL ThermoFluor assay - mutant; type: binding
T2 sequence (Q99685 1-303 L169S/L176S): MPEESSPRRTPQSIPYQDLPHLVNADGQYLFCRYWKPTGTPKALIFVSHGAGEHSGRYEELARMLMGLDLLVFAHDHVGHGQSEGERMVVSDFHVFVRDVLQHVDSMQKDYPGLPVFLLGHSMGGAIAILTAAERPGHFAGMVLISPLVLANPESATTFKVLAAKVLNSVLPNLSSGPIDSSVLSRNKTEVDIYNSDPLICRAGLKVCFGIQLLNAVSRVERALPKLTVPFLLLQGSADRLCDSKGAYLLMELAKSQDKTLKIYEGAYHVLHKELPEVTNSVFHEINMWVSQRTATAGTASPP

[3] = target: T3, purified wild type MGL (wt-MGLL 6H-11-313) (Homo sapiens, UniProt Q99685)
T3 sequence (Q99685 1-303): T2 sequence (Q99685 1-303 L169S/L176S) with S169L, S176L

[4] = ThermoFluor, compound concentration measured by qNMR, read-out: MGL mutant ThermoFluor qKd (using qNMR conc.)
[5] = ThermoFluor concentration-response, read-out: MGL mutant ThermoFluor Kd
[6] = ThermoFluor thermal stability binding assay, read-out: MGL mutant ThermoFluor Kd
[7] = compound concentration measured by qNMR, read-out: MGL mutant ThermoFluor qKd (using qNMR conc.)

| Compound | 2-AG accumulation, % of vehicle control at 1 µM [1] [%] | Kd [2, 4] [nM] | IC50 [3] [nM] | Kd [2, 5] [nM] | Kd [2, 6] [nM] | Kd [2, 7] [nM] | 2-AG accumulation, % of vehicle control at 0.1 µM ([1]; compound 0.1 μM, read-out: Rat Brain 2AG % VehCntrl (%) @ 0.1 μM) [%] | 2-AG accumulation, % of vehicle control at 10 µM ([1]; compound 10 μM, read-out: Rat Brain 2AG % VehCntrl (%) @ 10 μM) [%] |
| --- | --- | --- | --- | --- | --- | --- | --- | --- |
| O=C(c1ccc(F)c(Cc2ccc(C(F)(F)F)cc2)c1)N1CC(N2CCN(C(=O)c3nccs3)CC2)C1 [Cpd 1007, 1-[1-({4-Fluoro-3-[4-(trifluoromethyl)benzyl]phenyl}carbonyl)azetidin-3-yl]-4-(1,3-thiazol-2-ylcarbonyl)piperazine] | 180 |  | 27 | 259 |  |  |  |  |
| C/C(=C\c1ccc(Cl)cc1)c1c(C)c(C(=O)N2CC(N3CCN(C(=O)c4ccc[nH]4)CC3)C2)nn1-c1ccc(Cl)cc1Cl [Cpd 1011] | 994 |  | < 5 | 124 |  |  |  |  |
| O=C(c1ccc(Oc2cccc(Cl)c2)nc1)N1CC(N2CCN(C(=O)c3nccs3)CC2)C1 [Cpd 683] | 335 |  | 31 | 39 |  |  |  |  |
| O=C(c1ccc2c(c1)Sc1ccccc1O2)N1CC(N2CCN(C(=O)c3cscn3)CC2)C1 [Cpd 654] | 389 |  | 7 |  | 40 |  |  |  |
| O=C(c1nccs1)N1CCN(C2CN(C(=O)c3sc4ccc5ccccc5c4c3Cl)C2)CC1 [Cpd 890] | 823 |  | < 5 | 1 |  |  |  |  |
| CCCN(CCC)S(=O)(=O)c1ccc(C(=O)N2CC(N3CCN(C(=O)c4nccs4)CC3)C2)cc1 [Cpd 658] | 351 | 402 | 9 |  |  |  |  |  |
| O=C(c1ccc(OC(F)(F)F)c(Cl)c1)N1CC(N2CCN(C(=O)c3nccs3)CC2)C1 [Cpd 693] | 299 |  | 47 | 60 |  |  |  |  |
| Cc1cn(-c2ccc(F)c(F)c2)c2ccc(C(=O)N3CCN(C4CN(C(=O)c5nccs5)C4)CC3)cc12 [Cpd 1134, 1-(3,4-Difluorophenyl)-3-methyl-5-({4-[1-(1,3-thiazol-2-ylcarbonyl)azetidin-3-yl]piperazin-1-yl}carbonyl)-1H-indole] | 774 | 9 | 25 |  |  |  |  |  |
| O=C(c1nccs1)N1CCN(C2CN(C(=O)c3sc4ccc(Cl)cc4c3C(F)(F)F)C2)CC1 [Cpd 896, 1-(1-{[5-Chloro-3-(trifluoromethyl)-1-benzothiophen-2-yl]carbonyl}azetidin-3-yl)-4-(1,3-thiazol-2-ylcarbonyl)piperazine] | 648 |  | < 5 | 8 |  |  |  |  |
| O=C(c1ccccc1)N1CCN(C2CN(C(=O)c3cc4c(C(F)(F)F)cccc4s3)C2)CC1 [Cpd 330, 1-(Phenylcarbonyl)-4-(1-{[4-(trifluoromethyl)-1-benzothiophen-2-yl]carbonyl}azetidin-3-yl)piperazine] | 197 |  | 308 |  | 438 |  |  |  |
| O=C(c1nccs1)N1CCN(C2CN(C(=O)c3cccc4nc(-c5ccccc5)oc34)C2)CC1 [Cpd 1154, 2-Phenyl-7-({3-[4-(1,3-thiazol-2-ylcarbonyl)piperazin-1-yl]azetidin-1-yl}carbonyl)-1,3-benzoxazole] | 558 |  | 40 |  | 6 |  |  |  |
| O=C(c1cc(-c2ccc(Cl)cc2)n(-c2ccc(Cl)c(Cl)c2)n1)N1CC(N2CCN(C(=O)c3nccs3)CC2)C1 [Cpd 1083] | 299 | 65 | 9 |  |  |  |  |  |
| O=C(c1csnn1)N1CC(N2CCN(C(=O)c3cc4cc(C(F)(F)F)ccc4s3)CC2)C1 [Cpd 753] | 173 |  | 434 | 515 |  |  |  |  |
| Cc1nc(-c2ccc(F)cc2)sc1C(=O)N1CC(N2CCN(C(=O)c3nccs3)CC2)C1 [Cpd 1150] | 459 |  | 36 | 13 |  |  | 139 | 715 |
| COc1ccc(-n2ccc3cc(C(=O)N4CC(N5CCN(C(=O)c6nccs6)CC5)C4)ccc32)cn1 [Cpd 1072, 1-(6-Methoxypyridin-3-yl)-5-({3-[4-(1,3-thiazol-2-ylcarbonyl)piperazin-1-yl]azetidin-1-yl}carbonyl)-1H-indole] | 839 | 7 | 8 |  |  |  |  |  |
| Cc1c(C(=O)N2CC(N3CCN(C(=O)c4nccs4)CC3)C2)sc2cc(F)ccc12 [Cpd 684] | 645 |  | 31 |  | 4 |  |  |  |
| O=C(c1ccc2c(c1)CCCN2)N1CC(N2CCN(C(=O)c3nccs3)CC2)C1 [Cpd 357, 6-(3-[4-(1,3-Thiazol-2-ylcarbonyl)piperazin-1-yl]-azetidin-1-yl)carbonyl-1,2,3,4-tetrahydroquinoline] | 152 |  | 3750 |  | 238 |  |  |  |
| O=C(c1ccc(C2CCCCC2)cc1)N1CC(N2CCN(C(=O)c3nccs3)CC2)C1 [Cpd 889] | 683 |  | < 5 | 2 |  |  |  |  |

Next, values leading:

| 2-AG accumulation, % of vehicle control at 1 µM [1] [%] | Kd [2, 4] [nM] | IC50 [3] [nM] | Kd [2, 5] [nM] | Kd [2, 6] [nM] | Kd [2, 7] [nM] | 2-AG accumulation, % of vehicle control at 0.1 µM ([1]; compound 0.1 μM, read-out: Rat Brain 2AG % VehCntrl (%) @ 0.1 μM) [%] | 2-AG accumulation, % of vehicle control at 10 µM ([1]; compound 10 μM, read-out: Rat Brain 2AG % VehCntrl (%) @ 10 μM) [%] | Compound |
| --- | --- | --- | --- | --- | --- | --- | --- | --- |
| 288 | 278 | 77 |  |  |  |  |  | Cc1ccc(-n2ccc3cc(C(=O)N4CC(N5CCN(C(=O)c6ccc[nH]6)CC5)C4)ccc32)cn1 [Cpd 1181, 1-(6-Methylpyridin-3-yl)-5-({3-[4-(1H-pyrrol-2-ylcarbonyl)piperazin-1-yl]azetidin-1-yl}carbonyl)-1H-indole] |
| 944 |  | < 5 | 4 |  |  |  |  | O=C(c1ccc(-c2nc(-c3ccccc3)cs2)cc1)N1CC(N2CCN(C(=O)c3nccs3)CC2)C1 [Cpd 1326] |
| 846 |  | < 5 | 5 |  | 6 |  |  | O=C(c1nccs1)N1CCN(C2CN(C(=O)c3cc4ccn(-c5ccc(F)cc5)c4cc3F)C2)CC1 [Cpd 1349] |
| 994 |  | < 5 | 3 |  |  |  |  | O=C(c1ccc(-c2ccc(C(F)(F)F)s2)cc1)N1CC(N2CCN(C(=O)c3nccs3)CC2)C1 [Cpd 1361, 1-(1,3-Thiazol-2-ylcarbonyl)-4-[1-({4-[5-(trifluoromethyl)thiophen-2-yl]phenyl}carbonyl)azetidin-3-yl]piperazine] |
| 237 |  | 47 |  |  | 14 |  |  | O=C(c1ccc(-c2ccc(C(F)(F)F)s2)cc1)N1CCN(C2CN(C(=O)c3ccc[nH]3)C2)CC1 [Cpd 1162] |
| 401 | 244 | 86 |  |  |  |  |  | Cc1ccc(-n2ccc3cc(C(=O)N4CC(N5CCN(C(=O)C(F)(F)F)CC5)C4)ccc32)nc1 [Cpd 1184, 1-(5-Methylpyridin-2-yl)-5-({3-[4-(trifluoroacetyl)piperazin-1-yl]azetidin-1-yl}carbonyl)-1H-indole] |
| 457 |  | < 5 | 2 |  |  |  |  | Cc1cc(C(=O)N2CC(N3CCN(C(=O)c4nccs4)CC3)C2)ccc1-c1ccccc1 [Cpd 1322, 1-{1-[(2-Methylbiphenyl-4-yl)carbonyl]azetidin-3-yl}-4-(1,3-thiazol-2-ylcarbonyl)piperazine] |
| 244 |  | 48 | 73 |  |  |  |  | O=C(c1ccc2c(cnn2-c2ccccc2)c1)N1CC(N2CCN(C(=O)c3cscn3)CC2)C1 [Cpd 1163, 1-Phenyl-5-({3-[4-(1,3-thiazol-4-ylcarbonyl)piperazin-1-yl]azetidin-1-yl}carbonyl)-1H-indazole] |
